Experimental data from patent US20030159953A1, “Carbohydrate medical solution and sulphite stabilisator in a multiple compartment container and use thereof” (priority 2003, published 2003).

Assays:
[1] = test system: mouse fibroblasts cells L-929; test: In vitro assay for cytotoxicity (inhibition of cell growth, ICG); assay type: cell-based
Experimental: Medical solutions used for peritoneal dialysis were mixed with one part cell growth medium and 10% (volume/volume) fetal calf serum was added (Wieslander et al., 1991, Kidney Int. 40:77-79). Basal cytotoxicity of medical solution used for peritoneal dialysis were determined on mouse fibroblasts cells L-929 (CCL-1; ATTC, Rockville, Md., USA) as described earlier (Wieslander et al. 1993, Advances in Peritoneal Dialys, 9:31-35) and expressed as inhibition of cellgrowth (ICG).

[2] = Determination of acetaldehyde and formaldehyde (HPLC, 2,4-DNPH derivatives); assay type: physicochemical; conditions: Example 5: 1.5% glucose solution, sodium bisulphite 0, 0.5, 1 mM added before or after heat sterilisation 121° C. 1 hour
Experimental: Determination of acetaldehyde and formaldehyde: The samples for the determination of acetaldehyde were diluted 20 times to a final volume of 4 ml, prior to analysis. Acetaldehyde was prepared as hydrazone derivatives using 2,4-DNPH as derivative reagent. The standards were prepared in range 1.1-11.4 μM acetaldehyde, and 1.7-16.7 μM formaldehyde. Standards and samples were prepared by adding 2 ml 0.08% (weight/volume) 2,4-DNPH to 4 ml of each sample. The sample were concentrated on a solid phase extraction C18 column (Bond Elut LRC 200 mg/3 ml) and after rinsing with water, eluted with 1.6 ml acetonitrile. The analytical column was a Supelco C18 column (5 μm, 15 cm×4,6 mm). The elution of the substances was performed at constant flow of 1.7 ml/min by using a linear gradient of acetonitrile/water. The percentage acetonitrile/water (volume/volume) was initially 35/65 and at the gradient stop 12 minutes later 80/20. The wavelenght was set at 240 nm and the injected volume was 20 μl. The limit of quantification was for acetaldehyde. 1.1 μM. And for formaldehyde 1.7 μM.

O=S([O-])O.[Na+] [sodium bisulphite]
inhibition of cell growth (ICG) ([1]; Example 3: bisulphite in glucose compartment, 0-0.5 mM in final solution, 4% glucose, sterilised 121° C. 1 hour, mixed post sterilisation): decrease of the ICG value | inhibition of cell growth (ICG) ([1]; Example 4: sulphite in electrolyte compartment, concentrations in final solution as in example 3, 4% glucose, sterilised 121° C. 1 hour): decrease of the ICG value | inhibition of cell growth (ICG) ([1]; Example 5: 1.5% glucose solution, sodium bisulphite 0, 0.5, 1 mM added before or after heat sterilisation 121° C. 1 hour): decrease of the ICG value | level of acetaldehyde in sterilised solution [2]: decreased levels | level of formaldehyde in sterilised solution [2]: decreased levels
